Measured values from BindingDB's records for doi:10.1021/ml400144e (Riken, 2013).

Target: T1, NF-kappa-B inhibitor alpha (Homo sapiens, UniProt P25963)
T1 sequence (P25963 whole entry): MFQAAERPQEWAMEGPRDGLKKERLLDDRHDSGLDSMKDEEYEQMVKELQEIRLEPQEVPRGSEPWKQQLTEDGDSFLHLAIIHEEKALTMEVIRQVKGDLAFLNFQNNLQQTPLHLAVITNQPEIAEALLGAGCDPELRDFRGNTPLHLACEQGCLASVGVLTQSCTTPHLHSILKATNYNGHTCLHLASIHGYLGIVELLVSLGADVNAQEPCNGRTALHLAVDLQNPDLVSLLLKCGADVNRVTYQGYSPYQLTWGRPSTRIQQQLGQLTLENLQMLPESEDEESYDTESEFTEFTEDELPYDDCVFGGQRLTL
Test: Inhibition of TNFalpha-induced IkappaBalpha (unknown origin) phosphorylation expressed in human HeLa cells pretreated 30 mins before TNFalpha addition measured up to 120 mins by ELISA in presence of proteasome inhibitor MG-132

Row | Compound | IC50
1 | C[C@H]1C(=O)OC[C@H]1C[C@@H](O)[C@](C)(O)[C@@]1(O)CC[C@@]2(O)[C@@H]3CC=C4CC=CC(=O)[C@]4(C)[C@H]3CC[C@]12C | > 50 µM
2 | C[C@H]1C(=O)OC[C@H]1C[C@@H](O)[C@](C)(O)[C@]1(O)CC[C@@]2(O)[C@@H]3CC=C4CC=CC(=O)[C@]4(C)[C@H]3CC[C@]12C | > 50 µM
3 | CC1=C(C)C(=O)O[C@@H]([C@](C)(O)C2=CC[C@@]3(O)[C@@H]4CC=C5CC=CC(=O)[C@]5(C)[C@H]4CC[C@]23C)C1 | > 50 µM
4 | CC1=C(C)C(=O)O[C@@H]([C@](C)(O)[C@H]2CC[C@@]3(O)[C@@H]4CC=C5CC=CC(=O)[C@]5(C)[C@H]4CC[C@]23C)C1 | > 50 µM
5 | C[C@]12C(=O)C=CCC1=CC[C@@H]1[C@@H]2CC[C@]2(O)C(=O)O[C@@]3(C)[C@H]4C[C@@](C)([C@@H]5C(=O)[C@]1(O)O[C@@]532)[C@](C)(O)C(=O)O4 | > 50 µM
6 | C[C@]12C(=O)C=CCC1=C[C@@H](O)[C@@H]1[C@@H]2CC[C@@]2(O)C(=O)O[C@@]3(C)[C@H]4C[C@]5(C)[C@@H](CO[C@@]16O[C@]23[C@H]5C6=O)C(=O)O4 | > 50 µM
7 | C=C1C(=O)O[C@@H]2C[C@@]1(C)[C@@H]1C(=O)[C@]3(O)O[C@]14[C@@]2(C)OC(=O)[C@@]4(O)CC[C@H]1[C@H]3CC=C2CC=CC(=O)[C@@]21C | 26.2 µM
8 | C[C@@]12C[C@H]3OC(=O)[C@]1(O)CO[C@]14O[C@@]5([C@H]2C1=O)[C@@]3(C)OC(=O)[C@@]5(O)CC[C@H]1[C@H]4C[C@H]2O[C@]23CC=CC(=O)[C@]13C [25-HYDROXY PHYSALIN F] | 30.1 µM
9 | C[C@@]12C[C@H]3OC(=O)[C@]1(O)CO[C@]14O[C@@]5([C@H]2C1=O)[C@@]3(C)OC(=O)[C@@]5(O)CC[C@H]1[C@H]4C[C@@H]2O[C@@]23CC=CC(=O)[C@]13C [25-HYDROXY PHYSALIN J] | > 50 µM
10 | C[C@]12C(=O)C=CCC1=CC[C@@H]1[C@@H]2CC[C@]2(O)C(=O)O[C@@]3(C)[C@H]4C[C@]5(C)[C@@H](CO[C@@]16O[C@@]32[C@H]5C6=O)C(=O)O4 [NSC-287088] | 37.5 µM
11 | C=C1C(=O)O[C@@H]2C[C@@]1(C)[C@@H]1C(=O)[C@]3(O)O[C@]14[C@@]2(C)OC(=O)[C@@]4(O)CC[C@H]1[C@H]3[C@H](O)C=C2CC=CC(=O)[C@@]21C [PHYSALIN A] | > 50 µM
12 | C[C@@]12C[C@H]3OC(=O)[C@@H]1CO[C@]14O[C@]5([C@H]2C1=O)[C@@](O)(CC[C@H]1[C@H]4C[C@H]2O[C@]24CC=CC(=O)[C@]14C)C(=O)O[C@@]35C [PHYSALIN F] | 27.1 µM
13 | C[C@@]12C[C@H]3OC(=O)[C@@H]1CO[C@@]14O[C@]5(C2C1=O)[C@@](O)(CC[C@H]1[C@H]4C[C@@H]2O[C@@]24CC=CC(=O)[C@]14C)C(=O)O[C@@]35C [PHYSALIN J] | > 50 µM
14 | C[C@@H]1C(=O)O[C@@H]2C[C@@]1(C)[C@@H]1C(=O)[C@]3(O)O[C@]14[C@@]2(C)OC(=O)[C@@]4(O)CC[C@H]1[C@H]3[C@H](O)C=C2CC=CC(=O)[C@@]21C [PHYSALIN O] | > 50 µM
15 | CC1=C(C)C(=O)O[C@@H]([C@](C)(O)[C@]2(O)CC[C@@]3(O)[C@@H]4C[C@H]5O[C@]56CC=CC(=O)[C@]6(C)[C@H]4CC[C@]23C)C1 [WITHANOLIDE E] | 18 µM
16 | CC1=C(C)C(=O)O[C@@H]([C@](C)(O)[C@]2(O)CC[C@@]3(O)[C@@H]4CC=C5CC=CC(=O)[C@]5(C)[C@H]4CC[C@]23C)C1 [WITHANOLIDE F] | > 50 µM
